Experimental findings from the METLIN SMRT retention time set (Domingo-Almenara et al. 2019) are described below.

A short description of this series: gradient 5% acetonitrile 3 min, to 50% in 2 min, to 85% in 15 min, held 3 min, 100 µL/min. The note with it: column: Zorbax Extend-C18 2.1 x 50 mm; eluents: water / acetonitrile, 0.1% formic acid. The method in brief: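 Retention time was recorded from adduct peaks, which were picked computationally and each inspected manually. Pure standards ran in mixtures of ~100 molecules on HPLC coupled to a quadrupole time-of-flight mass spectrometer, in positive and negative ionization mode, through a Zorbax Extend-C18 column (2.1 × 50 mm, 1.8 μm) at 100 μL/min. Eluents were water and acetonitrile, each with 0.1% formic acid.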
Compound `NS(=O)(=O)c1ccc(CCNCc2ccc(-c3cccc(Cl)c3)o2)cc1` showed an RP-LC retention time of 675 s. Compound `Cn1cccc1C(=O)N1CC(c2nc(CCOC3CCCC3)no2)C1` gave an RP-LC retention time of 845 s. The figure for `O=C(c1ccoc1)N1CCCC(Nc2ncnc3c2CCC3)C1` (centres undefined) is 574 s; for `Cc1cc(Cl)ccc1S(=O)(=O)NC1CCc2nn(C)c(=O)n2CC1` (centres undefined) it is 708 s; for `COc1ccc(C(O)CN2CCN(c3ccc(F)cc3)CC2)cc1OC` (centres undefined) it is 636 s. With `O=C(NCc1ccco1)C1CCN(C(=O)c2ncn3c2COC(c2ccc(Cl)cc2)C3)CC1` (centres undefined), the RP-LC retention time is 753 s. The figure for `COc1cccc(C2=NN(C(C)=O)C(c3ccc(Br)cc3)O2)c1OC(C)=O` (centres undefined) is 1040 s.

Consider `Cc1cccc(NC(=O)Cn2c(=O)n(-c3ccc(F)cc3)c3ncccc32)c1C`, for which the RP-LC retention time came out at 880 s.

`CN(CC(=O)N1CC=C(c2ccccc2)CC1)S(=O)(=O)c1ccc2c(c1)CCCC(=O)N2`: the RP-LC retention time amounted to 746 s. In turn, `COc1ccccc1CNC(=O)CSc1ccc(-c2cccnc2)nn1` returned an RP-LC retention time of 592 s. As for `CC(C)OCCCNCc1ccc2c(c1)n(C)c(=O)n2C`, the RP-LC retention time is 592 s.

Regarding `COc1ccc(N2CC(c3noc(-c4cc(F)ccc4F)n3)CC2=O)cc1` (centres undefined), the RP-LC retention time worked out at 849 s. In turn, `Clc1cccc(-c2noc(Cc3nnc(-c4ccccc4)o3)n2)c1` returned an RP-LC retention time of 1070 s. Compound `Cc1nn(-c2cc(N3CCCCC3)ncn2)c(C)c1CCC(=O)NCc1ccccn1` yielded an RP-LC retention time of 646 s. In the case of `Cc1noc(C)c1-c1ccc(S(=O)(=O)N2CC=C(c3ccccc3)CC2)cc1`, the RP-LC retention time was 1110 s. Compound `Cc1ccc(F)c(NS(=O)(=O)c2cc3n(c2)CCCN(C)C3=O)c1` registered an RP-LC retention time of 687 s.

`COc1cccc(CC(=O)N2CCC3(CC2)NC(=O)c2cc(F)ccc2N3C)c1` yielded an RP-LC retention time of 758 s.

`Cc1nn(-c2ccccc2)cc1C(=O)N1CCC(CC(=O)NC2CC2)CC1` came in with an RP-LC retention time of 667 s. Consider `COc1ccc(-c2ncc3c(n2)CCN(C(=O)Nc2cc(C)ccc2C)C3)cc1`, for which the RP-LC retention time worked out at 660 s.

Turning to `CC(C)c1ccc(-c2csc(NC(=O)c3ccncc3)n2)cc1`, the RP-LC retention time turned out to be 989 s. For `CCc1csc(-c2ccc(N3CCN(C(=O)c4ccc(C#N)cc4F)CC3)nc2)n1` the value was 929 s. The figure for `O=C(NCc1cccc(Br)c1)C1CCN(c2cnc3nccnc3c2)CC1` is 726 s; for `COc1ccc(-c2cc(C(=O)N3CCN(c4c(C)n(C)c(=O)n(C)c4=O)CC3)c3ccccc3n2)cc1` it is 806 s; for `COc1ccc(OCc2nc(-c3ccc4ncn(C(C)C)c4c3)no2)cc1` it is 727 s.

As for `O=C(Cn1nc2c3cc(F)ccc3ncn2c1=O)Nc1ccc2c(c1)OCO2`, the RP-LC retention time worked out at 668 s. In turn, `CCn1c(=O)sc2cc(S(=O)(=O)N3CCC(C(=O)N4CCCCC4)CC3)ccc21` yielded an RP-LC retention time of 845 s.

As to `CC1CC(=O)c2cnc(N3CCN(C)CC3)nc2C1` (centres undefined), the RP-LC retention time was 564 s.

`Cc1ccc(CN2CCN(CC(=O)Nc3ccc4c(c3)OCCO4)C(=O)C2=O)cc1` gave an RP-LC retention time of 733 s.

For the compound `CCOc1ccc(CN2CCC3(CC2)CC(O)CCO3)cc1` (centres undefined), the RP-LC retention time is 593 s. In turn, `Cc1ccc(C)c(C2=NC3(CCN(C(C)C)CC3)NC(c3cc(Cl)ccc3O)C2)c1` (centres undefined) had an RP-LC retention time of 679 s. The compound `CCOC(=O)N1CCN(C(c2ccc(F)cc2)c2sc3ncnn3c2O)CC1` (centres undefined) had an RP-LC retention time of 667 s. Compound `COCC(=O)NC1CCC12CCN(C(=O)NC(C)C)CC2` (centres undefined) came in with an RP-LC retention time of 630 s. As to `Cc1noc(C)c1C1CCCN1C(=O)CCc1ccccc1` (centres undefined), the RP-LC retention time is 775 s.

Turning to `COc1ccc(N2CC(c3nc(-c4ccccc4)no3)CC2=O)cc1Cl` (centres undefined), the RP-LC retention time came to 973 s. For `COc1ccccc1-n1ccn2cc(-c3ccc(F)cc3)nc2c1=O`, the RP-LC retention time turned out to be 783 s.

As for `O=C([C@@H]1C[C@H](F)CN1S(=O)(=O)c1cccs1)N1CCc2ccccc2C1`, the RP-LC retention time turned out to be 830 s. For `CCn1c(C2CC(=O)N(Cc3ccccc3)C2)nc2ccccc21` (centres undefined) the value was 650 s; for `O=C(NCCc1csc(C2CCN(C(=O)C3CCCO3)CC2)n1)C1CC1` (centres undefined), 603 s. `CCc1cccc(NC(=O)C2CCN(S(=O)(=O)c3cc(-c4noc(C5CC5)n4)cs3)CC2)c1` yielded an RP-LC retention time of 1110 s. Consider `COCCCNC(=O)C1c2ccccc2C(=O)N1Cc1ccc(Cl)cc1` (centres undefined), for which the RP-LC retention time was 770 s. For `Cc1nn(-c2ccccc2)c(C)c1S(=O)(=O)N1CCC(C(=O)Nc2cccc(F)c2)CC1` the value was 986 s. For `CCCn1cc(C(=O)NCCCOC)c(S(=O)(=O)N2CCN(c3ccccc3Cl)CC2)n1` the value was 1020 s.

For `COC(=O)c1ccc2c(=O)n(CCc3ccccc3)c(N3CCCC3)nc2c1`, the RP-LC retention time amounted to 1210 s. `Cc1cc(=O)n(CC(=O)NCc2ccccc2Br)c(N2CCc3ccccc3C2)n1` returned an RP-LC retention time of 818 s. For `CCCOc1nc2ccccc2nc1N1CCCC(C(=O)NCc2ccc(C)cc2)C1` (centres undefined), the RP-LC retention time was 1240 s. The figure for `Cc1noc(-c2cc(=O)n(CC(=O)NCc3ccccc3Cl)c3ccccc23)n1` is 866 s; for `CCn1cc(C(=O)NCc2ccc(Br)cc2)c2cccnc21` it is 836 s; for `COc1ccccc1N(Cc1nc2nc(C)cc(C)n2n1)C(=O)c1ccco1` it is 709 s. Compound `COc1ccc(S(=O)(=O)N2CCC(OCCOc3ccccc3)CC2)cc1` displayed an RP-LC retention time of 1070 s. For `CCC(c1cccs1)N1C(=O)[C@H]2CN(S(=O)(=O)c3cccc(Cl)c3)C[C@H]2C1=O` (some centres undefined) the value was 1060 s; for `CCn1cc2c3c(cccc31)CN(C(=O)Nc1cccc(C)c1)CC2`, 1050 s; for `C=CCN1C(=O)CC(Nc2ccc(CC)cc2)C1=O` (centres undefined), 846 s. The figure for `CCc1nc(-c2csc(S(=O)(=O)N3CCCC(C(=O)N4CCc5ccccc5C4)C3)c2)no1` (centres undefined) is 1060 s. The figure for `Cc1ccn2cc(-c3ccc(NC(=O)Nc4ccc(Cl)cc4)cc3)nc2n1` is 711 s; for `CCc1nc2c(c(=O)n1CC(=O)Nc1ccccc1)CN(Cc1ccccc1)CC2` it is 638 s. As to `CCc1ccc(NC(=O)Nc2cccc(-c3nnc4n3CCCC4)c2)cc1`, the RP-LC retention time amounted to 736 s. The figure for `O=C(NCc1ccc(Br)cc1)c1ccc2ncnc(N3CCCC3)c2c1` is 679 s. `COc1ccc(-c2noc(Cn3c(=O)n(C(C)C)c(=O)c4ccccc43)n2)cc1OC` returned an RP-LC retention time of 1000 s. For `CSc1ccc(CNC(=O)C2CCCN(c3nc4c(s3)c(C)nn4-c3ccc(C)cc3)C2)cc1` (centres undefined) the value was 1210 s.
